Reference: patent US9796711B2, “Substituted pyrazolo[3,4-b]pyridin-6-carboxylic acids and method of use” (AbbVie S.àr.l., priority 2015, dated 2017)

Tests used:
ΔF508-CFTR [1] = target: T1, ΔF508-CFTR (Homo sapiens, UniProt P13569, DEL508-508); assay: CFTR cell surface levels using HRP-tagged ΔF508-CFTR expressing CFBE cells, intrinsic corrector capacity; format: cell-based; settings: HRP-tagged ΔF508-CFTR expressing CFBE cells, intrinsic corrector capacity (no co-corrector), 33° C., 20 hours; for EC50: read-out: EC50
T1 construct: host or cells: CFBE41o-, doxycycline-inducible
Procedure, shortened: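 Here the cells express ΔF508-CFTR with horseradish peroxidase inserted in extracellular loop 4, so only rescued channel at the surface gives luminescent signal. Compounds act on their own, 20 h at the reduced temperature of 33 °C; values are percent activity relative to DMSO and a 3 μM corrector.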

ΔF508-CFTR [2] = target: T1, ΔF508-CFTR; assay: CFTR cell surface levels using HRP-tagged ΔF508-CFTR expressing CFBE cells, in the presence of a co-corrector; format: cell-based; settings: HRP-tagged ΔF508-CFTR expressing CFBE cells, in the presence of 3 μM co-corrector; for EC50: read-out: EC50
Procedure, shortened: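 Cells were seeded with 0.5 μg/mL doxycycline and held 68 h at 37 °C. Test compounds plus 3 μM co-corrector (final 0.1% DMSO) were then added for 20 h at 33 °C. Washed cells received HRP substrate, and luminescence was normalized between DMSO and 3 μM co-corrector controls.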

T1 sequence (P13569 with tags, fused parts or gaps DEL508-508): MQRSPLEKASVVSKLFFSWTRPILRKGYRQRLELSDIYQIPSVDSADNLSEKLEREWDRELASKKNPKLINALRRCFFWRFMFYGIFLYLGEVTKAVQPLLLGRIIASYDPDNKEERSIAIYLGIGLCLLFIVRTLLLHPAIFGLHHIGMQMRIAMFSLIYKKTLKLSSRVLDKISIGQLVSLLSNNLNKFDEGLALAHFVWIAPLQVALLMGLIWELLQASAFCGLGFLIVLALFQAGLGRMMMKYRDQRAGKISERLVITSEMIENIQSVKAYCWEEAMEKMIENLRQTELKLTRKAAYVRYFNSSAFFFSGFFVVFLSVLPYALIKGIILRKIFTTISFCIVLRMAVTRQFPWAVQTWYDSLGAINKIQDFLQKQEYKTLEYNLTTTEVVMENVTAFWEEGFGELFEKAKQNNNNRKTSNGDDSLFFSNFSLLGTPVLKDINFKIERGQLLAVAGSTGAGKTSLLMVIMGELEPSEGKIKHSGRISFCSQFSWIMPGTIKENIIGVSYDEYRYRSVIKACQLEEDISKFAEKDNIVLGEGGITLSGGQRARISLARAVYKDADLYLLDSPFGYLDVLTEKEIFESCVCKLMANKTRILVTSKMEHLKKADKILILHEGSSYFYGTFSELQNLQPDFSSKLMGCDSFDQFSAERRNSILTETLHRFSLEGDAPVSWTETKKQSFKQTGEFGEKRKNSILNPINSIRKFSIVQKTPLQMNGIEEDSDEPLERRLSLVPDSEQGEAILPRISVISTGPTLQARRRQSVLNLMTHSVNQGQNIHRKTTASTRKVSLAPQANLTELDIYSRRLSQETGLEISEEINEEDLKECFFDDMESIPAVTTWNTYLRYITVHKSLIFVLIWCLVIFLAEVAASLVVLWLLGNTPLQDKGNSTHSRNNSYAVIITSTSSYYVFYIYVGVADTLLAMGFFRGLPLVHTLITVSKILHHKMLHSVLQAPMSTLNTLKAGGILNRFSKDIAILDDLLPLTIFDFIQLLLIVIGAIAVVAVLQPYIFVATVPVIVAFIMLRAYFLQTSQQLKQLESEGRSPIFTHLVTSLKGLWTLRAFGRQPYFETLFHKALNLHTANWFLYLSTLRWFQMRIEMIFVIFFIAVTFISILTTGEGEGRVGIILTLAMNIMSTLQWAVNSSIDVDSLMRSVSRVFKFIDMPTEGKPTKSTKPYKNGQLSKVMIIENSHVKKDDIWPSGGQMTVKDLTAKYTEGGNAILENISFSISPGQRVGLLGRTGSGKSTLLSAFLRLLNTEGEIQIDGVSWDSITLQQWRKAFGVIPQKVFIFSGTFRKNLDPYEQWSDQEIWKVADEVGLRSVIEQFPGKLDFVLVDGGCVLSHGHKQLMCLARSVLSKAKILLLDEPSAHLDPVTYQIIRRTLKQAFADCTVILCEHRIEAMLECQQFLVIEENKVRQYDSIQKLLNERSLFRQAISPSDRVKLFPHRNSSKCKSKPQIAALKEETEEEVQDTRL

Row | Compound | % Activation (ΔF508-CFTR [1]) | EC50 (ΔF508-CFTR [1]) | % Activation (ΔF508-CFTR [2]) | EC50 (ΔF508-CFTR [2])
1 | COc1cccc(-n2nc(C3CCC3)c3c(N4CCC(N5CCOCC5)CC4)cc(C(=O)O)nc32)c1 [compound 822, 3-cyclobutyl-1-(3-methoxyphenyl)-4-[4-(morpholin-4-yl)piperidin-1-yl]-1H-pyrazolo[3,4-b]pyridine-6-carboxylic acid] | 272.3% | 301 nM | 472.75% | 1140 nM
2 | O=C(O)c1cc(N2CCC(N3CCOCC3)CC2)c2c(C3CCC3)nn(-c3ccc(C(F)(F)F)cc3)c2n1 [compound 823, 3-cyclobutyl-4-[4-(morpholin-4-yl)piperidin-1-yl]-1-[4-(trifluoromethyl)phenyl]-1H-pyrazolo[3,4-b]pyridine-6-carboxylic acid] | 188.7% | 258 nM | 375.2% | 147 nM
3 | Cc1cc(-n2nc(C3CCC3)c3c(N4CCC(N5CCOCC5)CC4)cc(C(=O)O)nc32)ccc1F [compound 824, 3-cyclobutyl-1-(4-fluoro-3-methylphenyl)-4-[4-(morpholin-4-yl)piperidin-1-yl]-1H-pyrazolo[3,4-b]pyridine-6-carboxylic acid] | 338.9% | 180 nM | 535.65% | 277 nM
4 | O=C(O)c1cc(N2CCC(N3CCOCC3)CC2)c2c(C3CCC3)nn(-c3cccc(F)c3)c2n1 [compound 825, 3-cyclobutyl-1-(3-fluorophenyl)-4-[4-(morpholin-4-yl)piperidin-1-yl]-1H-pyrazolo[3,4-b]pyridine-6-carboxylic acid] | 289% | 207 nM | 455.85% | 144 nM
5 | O=C(O)c1cc(N2CCC(N3CCOCC3)CC2)c2c(C3CCC3)nn(-c3cccc(C(F)(F)F)c3)c2n1 [compound 826, 3-cyclobutyl-4-[4-(morpholin-4-yl)piperidin-1-yl]-1-[3-(trifluoromethyl)phenyl]-1H-pyrazolo[3,4-b]pyridine-6-carboxylic acid] | 314.4% | 157 nM | 528.15% | 102 nM
6 | O=C(O)c1cc(N2CCC(CN3CC(F)C3)CC2)c2c(C3CCC3)nn(-c3ccccc3)c2n1 [compound 827, 3-cyclobutyl-4-{4-[(3-fluoroazetidin-1-yl)methyl]piperidin-1-yl}-1-phenyl-1H-pyrazolo[3,4-b]pyridine-6-carboxylic acid] | 265.4% | 257 nM | 453.25% | 93 nM
7 | O=C(O)c1cc(N2CCC(CN3CCC(F)(F)C3)CC2)c2c(C3CCC3)nn(-c3ccccc3)c2n1 [compound 828, 3-cyclobutyl-4-{4-[(3,3-difluoropyrrolidin-1-yl)methyl]piperidin-1-yl}-1-phenyl-1H-pyrazolo[3,4-b]pyridine-6-carboxylic acid] | 283.5% | 83.2 nM | 518.35% | 47.9 nM
8 | COC1CN(CC2CCN(c3cc(C(=O)O)nc4c3c(C3CCC3)nn4-c3ccccc3)CC2)C1 [compound 829, 3-cyclobutyl-4-{4-[(3-methoxyazetidin-1-yl)methyl]piperidin-1-yl}-1-phenyl-1H-pyrazolo[3,4-b]pyridine-6-carboxylic acid] | 170.7% | 381 nM | 411.7% | 344 nM
9 | O=C(O)c1cc(N2CCC(CN3CCCC(F)(F)C3)CC2)c2c(C3CCC3)nn(-c3ccccc3)c2n1 [compound 830, 3-cyclobutyl-4-{4-[(3,3-difluoropiperidin-1-yl)methyl]piperidin-1-yl}-1-phenyl-1H-pyrazolo[3,4-b]pyridine-6-carboxylic acid] | 353.9% | 115 nM | 588.2% | 63.2 nM
10 | COCC1CN(CC2CCN(c3cc(C(=O)O)nc4c3c(C3CCC3)nn4-c3ccccc3)CC2)C1 [compound 831, 3-cyclobutyl-4-(4-{[3-(methoxymethyl)azetidin-1-yl]methyl}piperidin-1-yl)-1-phenyl-1H-pyrazolo[3,4-b]pyridine-6-carboxylic acid] | 231.3% | 1460 nM | 402.5% | 407 nM
11 | O=C(O)c1cc(N2CCC(CN3CC[C@@H](F)C3)CC2)c2c(C3CCC3)nn(-c3ccccc3)c2n1 [compound 832, 3-cyclobutyl-4-(4-{[(3R)-3-fluoropyrrolidin-1-yl]methyl}piperidin-1-yl)-1-phenyl-1H-pyrazolo[3,4-b]pyridine-6-carboxylic acid] | 250.5% | 151 nM | 526.6% | 1070 nM
12 | O=C(O)c1cc(N2CCC(CN3CC[C@H](F)C3)CC2)c2c(C3CCC3)nn(-c3ccccc3)c2n1 [compound 833, 3-cyclobutyl-4-(4-{[(3S)-3-fluoropyrrolidin-1-yl]methyl}piperidin-1-yl)-1-phenyl-1H-pyrazolo[3,4-b]pyridine-6-carboxylic acid] | 231.9% | 187 nM | 443.15% | 142 nM
13 | O=C(O)c1cc(N2CCC(CN3CCCOCC3)CC2)c2c(C3CCC3)nn(-c3ccccc3)c2n1 [compound 834, 3-cyclobutyl-4-{4-[(1,4-oxazepan-4-yl)methyl]piperidin-1-yl}-1-phenyl-1H-pyrazolo[3,4-b]pyridine-6-carboxylic acid] | 227.9% | 241 nM | 403% | 114 nM
14 | O=C(O)c1cc(N2CCC(CN3CC(OCC(F)F)C3)CC2)c2c(C3CCC3)nn(-c3ccccc3)c2n1 [compound 835, 3-cyclobutyl-4-(4-{[3-(2,2-difluoroethoxy)azetidin-1-yl]methyl}piperidin-1-yl)-1-phenyl-1H-pyrazolo[3,4-b]pyridine-6-carboxylic acid] | 291.5% | 163 nM | 466.9% | 67.6 nM
15 | O=C(O)c1cc(N2CCC(CN3CC4(CCCOC4)C3)CC2)c2c(C3CCC3)nn(-c3ccccc3)c2n1 [compound 836, 3-cyclobutyl-4-{4-[(6-oxa-2-azaspiro[3.5]nonan-2-yl)methyl]piperidin-1-yl}-1-phenyl-1H-pyrazolo[3,4-b]pyridine-6-carboxylic acid] | 137.3% | 486 nM | 325.3% | 409 nM
16 | O=C(O)c1cc(N2CCC(CN3CCN4C[C@@H](F)C[C@H]4C3)CC2)c2c(C3CCC3)nn(-c3ccccc3)c2n1 [compound 838, 3-cyclobutyl-4-(4-{[(7S,8aS)-7-fluorohexahydropyrrolo[1,2-a]pyrazin-2(1H)-yl]methyl]piperidin-1-yl)-1-phenyl-1H-pyrazolo[3,4-b]pyridine-6-carboxylic acid] | 240.3% | 269 nM | 411.8% | 115 nM
17 | O=CN1CCCN(CC2CCN(c3cc(C(=O)O)nc4c3c(C3CCC3)nn4-c3ccccc3)CC2)CC1 [compound 839] | 275.7% | 921 nM | 437.3% | 180 nM
18 | O=C(O)c1cc(N2CCC(CN3CCC4(CC3)COC4)CC2)c2c(C3CCC3)nn(-c3ccccc3)c2n1 [compound 840, 3-cyclobutyl-4-{4-[(2-oxa-7-azaspiro[3.5]nonan-7-yl)methyl]piperidin-1-yl}-1-phenyl-1H-pyrazolo[3,4-b]pyridine-6-carboxylic acid] | 164.4% | 400 nM | 368.8% | 250 nM
19 | COC1CCN(CC2CCN(c3cc(C(=O)O)nc4c3c(C3CCC3)nn4-c3ccccc3)CC2)CC1 [compound 841, 3-cyclobutyl-4-{4-[(4-methoxypiperidin-1-yl)methyl]piperidin-1-yl}-1-phenyl-1H-pyrazolo[3,4-b]pyridine-6-carboxylic acid] | 225% | 532 nM | 457.1% | 314 nM
20 | O=C(O)c1cc(N2CCC(CN3CCC4(COC4)C3)CC2)c2c(C3CCC3)nn(-c3ccccc3)c2n1 [compound 842, 3-cyclobutyl-4-{4-[(2-oxa-6-azaspiro[3.4]octan-6-yl)methyl]piperidin-1-yl}-1-phenyl-1H-pyrazolo[3,4-b]pyridine-6-carboxylic acid] | 162.5% | 628 nM | 370% | 582 nM
21 | O=CN1CCN(CC2CCN(c3cc(C(=O)O)nc4c3c(C3CCC3)nn4-c3ccccc3)CC2)CC1 [compound 843, 3-cyclobutyl-4-{4-[(4-formylpiperazin-1-yl)methyl]piperidin-1-yl}-1-phenyl-1H-pyrazolo[3,4-b]pyridine-6-carboxylic acid] | 264.2% | 366 nM | 499.3% | 207 nM
22 | O=C(O)c1cc(N2CCC(CN3CC4CC4C3)CC2)c2c(C3CCC3)nn(-c3ccccc3)c2n1 (stereo not shown) [compound 844, 4-{4-[(3-azabicyclo[3.1.0]hexan-3-yl)methyl]piperidin-1-yl}-3-cyclobutyl-1-phenyl-1H-pyrazolo[3,4-b]pyridine-6-carboxylic acid] | 184.9% | 210 nM | 429.2% | 206 nM
